Experimental findings from paper PMC6697720, “Saturation of acyl chains converts cardiolipin from an antagonist to an activator of Toll-like receptor-4” (Cellular and Molecular Life Sciences: CMLS, 2019) are described below.

One assay has as its system human PBMCs. Description: LPS-induced TNF-α and IL-1β release in human PBMCs. The format is cell-based. The following applies: LPS 100 ng/mL. On the procedure: Blood from healthy volunteers was collected upon informed consent. PBMCs were obtained by Ficoll gradient centrifugation in Histopaque-1077 (Sigma-Aldrich, St Louis, Missouri, United States) using SepMate™ isolation tubes from STEMCELL™ according to the manufacturer’s instructions. Isolated PBMCs were resuspended in RPMI 1640 supplemented with 10% heat-inactivated FBS.
(§1) 100.000 of freshly isolated PBMCs or monocytes were mixed with stimulants to a final volume of 160 μL/well in round bottom 96-well plates.
(§2) After stimulation, supernatants were collected, centrifuged, and assayed for cytokine secretion, while cells were assayed for viability.
TNF-α and IP-10 were quantified in cell supernatants using DuoSet ELISA kits from R&D Systems and human IL-1β using Instant ELISA™ Kit from Invitrogen, according to the manufacturer’s instructions. Absorbance was read with a BioTek Synergy HT Microplate Readers. […]

In another assay the test system is primary human monocytes. Description: TNF-α and IL-1β secretion in primary human monocytes incubated with CL. The assay is classed as cell-based. The following applies: with NLRP3 inhibitor MCC950. On the procedure: Human monocytes were isolated from PBMCs by immunomagnetic negative selection using the EasySep™ human monocyte enrichment kit without CD16 depletion (STEMCELL™ Technologies).
as §1, §2
TNF-α and IP-10 were quantified in cell supernatants using DuoSet ELISA kits from R&D Systems and human IL-1β using Instant ELISA™ Kit from Invitrogen, according to the manufacturer’s instructions. Absorbance was read with a BioTek Synergy HT Microplate Readers.
Fig. 3 Saturated but not unsaturated CLs have pro-inflammatory properties. a RAW-Blue™ cells were incubated overnight with the indicated amount of CL or LPS, supernatants were collected, and NF-κB activation quantified via Quanti-Blue™ test and reported here as fold induction as compared to control. Unpaired t test: differences with respect to the control (Ctrl) are not significant if p > 0.05 (no symbol); *p ≤ 0.0007. b Immortalized BMDM cells were incubated overnight with the indicated amount of CL or LPS; supernatants were collected and TNF-α quantified via ELISA assay. c, d Primary human monocytes were incubated overnight with the indicated amount of CL or LPS with or without the NLRP3 inhibitor MCC950, supernatants were collected, and TNF-α and IL-1β were quantified via ELISA assay. Graphs are representative of experiments from six different donors. Unpaired t test: differences with respect to the control (Ctrl) are not significant if p > 0.05 (no symbol); *p ≤ 0.021. Each bar represents the mean + standard deviation of three biological replicates (n = 3). Graphs are representative of at least three independent experiments
C18:0 and C18:2 CLs’ pro-inflammatory activities were validated in primary monocytes isolated from human donor blood. C18:0 CL but not C18:2 CL reproduced LPS activity inducing TNF-α and IL-1β secretion in a dose-dependent manner (Fig. 3c, d).

For `CC(C)(O)c1coc(S(=O)(=O)NC(=O)Nc2c3c(cc4c2CCC4)CCC3)c1` [MCC950], in the assay on human PBMCs (4 h), the “inhibition of LPS-induced TNF-α secretion” value was “not”. The “inhibition of LPS-induced IL-1β secretion” value with human PBMCs (16 h) is listed as “able to inhibit”. Besides, the “inhibition of saturated CL-induced IL-1β secretion” value in the assay with primary human monocytes is listed as “inhibited”.
